From patent US7214826B2, “Amine compounds and inhibiting neurotransmitter reuptake” (Mayo Foundation for Medical Education and Research, priority 2001, dated 2007)

Columns and labels:
[1] = biological target: T1, human norepinephrine transporter (hNET) (Homo sapiens, UniProt P23975); assay: Human transporter binding studies: radioligand binding to cloned hNET ([3H]nisoxetine); conditions: for Kd: HEK-293 cell membranes, 0.5 nM [3H]nisoxetine, 22° C., 60 minutes, geometric mean of at least three experiments; for specificity for hNET compared to venlafaxine (in words): comparison of Kd values with venlafaxine
T1 construct: expressed in transfected cells
Protocol: (§1) The cells were incubated in 10% CO2, 90% air at 37° C. and 100% humidity. The hNET cell cultures contained 250 μg/mL geneticin sulfate. The cells were grown to 70–80% confluency prior to harvesting.
(§2) Cell membranes containing hSERT, hNET, or hDAT were prepared from the cell lines to assay ligand binding for each of the transporters. […] The washed cells were incubated for 5 minutes at 38° C. in 10 mL solution 1 containing 100 mM ethylene glycol-bis N,N,N′,N′-tetraacetic acid (EGTA). The cells were then scraped from the flask surface with a rubber spatula, placed into a centrifuge tube, and collected by centrifugation at 1000×g for 5 minutes at 4° C. The resulting supernatant was discarded, and the cell pellet was resuspended in 0.5 to 1.0 mL of the appropriate binding buffer (described below). The resuspended cell pellet was homogenized using a Polytron for 10 seconds at setting 6. The resulting homogenate was centrifuged at about 36,000×g for 10 minutes at 4° C. The supernatant was discarded, and the pellet was resuspended in the same volume of the appropriate binding buffer and centrifuged again. The supernatant was discarded, and the final pellet containing cell membranes was resuspended in the appropriate binding buffer and stored at −80° C. until use.
To assess binding to the cloned hNET, cells expressing hNET were homogenized in 50 mM Tris-HCl with 300 mM NaCl and 5 mM KCl (pH 7.4). […] A reaction to determine non-specific binding consisted of 25 μg cell membrane protein, 0.5 nM [^3H]nisoxetine, and 1 μM final concentration of unlabeled nisoxetine. The reactions were incubated at 22° C. for 60 minutes. Following incubation, the reactions were terminated by rapid filtration through separate GF/B filter strips pretreated with 0.2% polyethylenimine in a 48-well Brandel cell harvester. The cell membrane-containing filter strips were then rinsed five times with ice-cold 0.9% NaCl. After rinsing, individual filters were cut from the strip and placed in a scintillation vial containing 6.5 mL of Redi-Safe (Beckman Instruments, Fullerton, Calif.). Radioactivity was measured with a Beckman liquid scintillation counter (LS 5000TD).
(§3) The program was modified to calculate the Hill coefficient (nH). Data are presented as geometric mean ±S.E.M. of at least three independent experiments. One-component models and two-component models were compared using the root mean square error of each fit and the F test.

[2] = biological target: T2, human serotonin transporter (hSERT) (Homo sapiens, UniProt P31645); assay: Human transporter binding studies: radioligand binding to cloned hSERT ([3H]imipramine); conditions: for Kd: HEK-293 cell membranes, 1.0 nM [3H]imipramine, 22° C., 60 minutes, geometric mean of at least three experiments; for specificity for hSERT relative to hNET and hDAT (in words): comparison of Kd values between transporters; for specificity for hSERT compared to venlafaxine (in words): comparison of Kd values with venlafaxine
T2 construct: expressed in transfected cells
Protocol: as §1, §2
(§4) Radioligand binding assays for the indicated transporters were performed as follows. To assess binding to the cloned hSERT, cells expressing hSERT were homogenized in 50 mM Tris-HCl with 120 mM NaCl and 5 mM KCl (pH 7.4). […] The reactions were incubated at 22° C. for 60 minutes. Following incubation, the reactions were terminated by rapid filtration through separate GF/B filter strips pretreated with 0.2% polyethylenimine in a 48-well Brandel cell harvester. The cell membrane-containing filter strips were then rinsed five times with ice-cold 0.9% NaCl. After rinsing, individual filters were cut from the strip and placed in a scintillation vial containing 6.5 mL of Redi-Safe (Beckman Instruments, Fullerton, Calif.). Radioactivity was measured with a Beckman liquid scintillation counter (LS 5000TD).
as §3

[3] = biological target: T3, human dopamine transporter (hDAT) (Homo sapiens, UniProt Q01959); assay: Human transporter binding studies: radioligand binding to cloned hDAT ([3H]WIN35428); conditions: for Kd: HEK-293 cell membranes, 1 nM [3H]WIN35428, 22° C., 1 hour, geometric mean of at least three experiments; for specificity for hDAT compared to venlafaxine (in words): comparison of Kd values with venlafaxine
T3 construct: expressed in transfected cells
Protocol: as §1, §2
as §4, with “To” for “Radioligand binding assays for the indicated transporters were performed as follows. To”, “hDAT,” for “hSERT,”, “hDAT” for “hSERT”, “NaCl” for “NaCl and 5 mM KCl”, “1 hour.” for “60 minutes.”
as §3

T2 sequence (P31645 whole entry): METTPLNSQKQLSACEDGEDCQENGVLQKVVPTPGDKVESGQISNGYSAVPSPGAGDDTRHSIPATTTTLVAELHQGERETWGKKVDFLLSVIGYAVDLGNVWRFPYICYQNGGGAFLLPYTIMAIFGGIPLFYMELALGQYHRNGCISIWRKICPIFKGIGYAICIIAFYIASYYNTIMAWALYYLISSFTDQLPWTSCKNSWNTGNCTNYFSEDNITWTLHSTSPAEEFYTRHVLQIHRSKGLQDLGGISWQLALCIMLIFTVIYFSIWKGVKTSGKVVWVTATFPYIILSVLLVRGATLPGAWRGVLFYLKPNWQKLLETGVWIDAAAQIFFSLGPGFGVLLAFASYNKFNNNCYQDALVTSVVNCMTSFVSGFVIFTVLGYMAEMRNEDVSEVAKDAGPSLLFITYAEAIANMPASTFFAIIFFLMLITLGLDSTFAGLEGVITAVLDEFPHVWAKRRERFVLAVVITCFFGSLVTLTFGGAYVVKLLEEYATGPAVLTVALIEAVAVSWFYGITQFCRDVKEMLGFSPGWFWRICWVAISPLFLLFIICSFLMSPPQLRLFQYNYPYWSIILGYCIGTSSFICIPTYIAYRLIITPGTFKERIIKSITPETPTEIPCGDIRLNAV
T1 sequence (P23975 whole entry): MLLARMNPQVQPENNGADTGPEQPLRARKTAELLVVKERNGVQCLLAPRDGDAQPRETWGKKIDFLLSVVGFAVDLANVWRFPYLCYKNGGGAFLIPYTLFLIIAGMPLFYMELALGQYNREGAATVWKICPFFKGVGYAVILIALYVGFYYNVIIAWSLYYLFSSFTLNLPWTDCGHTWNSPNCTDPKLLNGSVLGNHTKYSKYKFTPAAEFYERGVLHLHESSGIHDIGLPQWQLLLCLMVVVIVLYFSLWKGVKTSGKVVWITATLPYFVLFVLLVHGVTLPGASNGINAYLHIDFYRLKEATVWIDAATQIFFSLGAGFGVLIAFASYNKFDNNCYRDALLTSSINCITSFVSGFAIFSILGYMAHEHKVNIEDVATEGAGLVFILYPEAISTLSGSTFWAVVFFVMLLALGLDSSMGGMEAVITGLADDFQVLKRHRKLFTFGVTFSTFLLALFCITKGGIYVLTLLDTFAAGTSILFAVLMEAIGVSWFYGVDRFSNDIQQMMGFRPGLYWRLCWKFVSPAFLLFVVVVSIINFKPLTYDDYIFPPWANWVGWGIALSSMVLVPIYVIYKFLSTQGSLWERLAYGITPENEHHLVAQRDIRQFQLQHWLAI
T3 sequence (Q01959 whole entry): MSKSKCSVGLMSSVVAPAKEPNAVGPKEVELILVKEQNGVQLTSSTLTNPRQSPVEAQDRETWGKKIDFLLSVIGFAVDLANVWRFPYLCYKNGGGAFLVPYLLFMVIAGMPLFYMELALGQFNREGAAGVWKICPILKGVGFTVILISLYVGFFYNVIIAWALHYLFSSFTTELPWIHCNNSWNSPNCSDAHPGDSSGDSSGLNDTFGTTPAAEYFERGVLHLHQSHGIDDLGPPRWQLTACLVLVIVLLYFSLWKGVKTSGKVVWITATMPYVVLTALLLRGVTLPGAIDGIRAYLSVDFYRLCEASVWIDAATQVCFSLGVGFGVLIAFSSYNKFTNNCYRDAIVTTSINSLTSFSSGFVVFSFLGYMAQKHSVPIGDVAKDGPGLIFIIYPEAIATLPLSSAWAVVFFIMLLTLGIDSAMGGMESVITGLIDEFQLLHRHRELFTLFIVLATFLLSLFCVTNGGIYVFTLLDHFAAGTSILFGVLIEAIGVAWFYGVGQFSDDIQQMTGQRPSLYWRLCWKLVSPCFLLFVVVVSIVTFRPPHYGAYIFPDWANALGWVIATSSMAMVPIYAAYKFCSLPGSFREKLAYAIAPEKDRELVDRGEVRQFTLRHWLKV

Row | SMILES | Kd [1] [µM] | Kd [2] [µM] | Kd [3] [µM] | specificity for hNET compared to venlafaxine (in words) [1] | specificity for hSERT relative to hNET and hDAT (in words) [2] | specificity for hSERT compared to venlafaxine (in words) [2] | specificity for hDAT compared to venlafaxine (in words) [3] | binding to hNET ranked among all compounds tested (in words) [1] | specificity for hNET relative to hSERT and hDAT (in words) [1]
1 | NCC(c1ccc2ccccc2c1)C(O)c1ccccc1 (racemic) [E, racemic mixture of (2S, 3R)- and (2R, 3S)-3-hydroxy-2-(2′naphthyl)-3-phenylpropylamine] |  |  | 0.42 |  |  |  | greater specificity for hDAT compared to vanlafaxine |  | 
2 | CNCC(c1ccc2ccccc2c1)C(O)c1ccccc1 (racemic) [Compound B, racemic mixture of (2S, 3R)- and (2R, 3S)-N-methyl-3-hydroxy-2-(2′-naphthyl)-3-phenylpropylamine] |  |  | 0.39 |  |  |  | greater specificity for hDAT than the parent analogue venlfaxine |  | 
3 | CN(C)C[C@H](c1ccc2ccccc2c1)[C@@H](O)c1ccccc1 (racemic) [F, racemic mixture of (2S, 3R)- and (2R, 3S)-N,N-dimethyl-3-hydroxy-2-(2′-naphthyl)-3-phenylpropylamine] |  |  |  |  |  |  | greater specificity for hDAT compared to vanlafaxine |  | 
4 | CC(C)C(O)C(CN)c1ccc2ccccc2c1 (racemic) [Compound C, racemic mixture of (2R, 3S)- and (2S, 3R)-3-hydroxy-4-methyl-2-(2′-naphthyl)pentylamine] | 0.329 | 0.0057 | 0.88 | greater specificity for all three transporters compared to venlafaxine | more potent inhibitor of hSERT than of hNET or hDAT | greater specificity for all three transporters compared to venlafaxine | greater specificity for all three transporters compared to venlafaxine |  | 
5 | CC(C)C(O)C(CN(C)C)c1ccc2ccccc2c1 (racemic) [Compound D, racemic mixture of (2R, 3S)- and (2S, 3R)-N,N-dimethyl-3-hydroxy-4-methyl-2-(2′naphthyl)pentylamine] | 0.0146 | 0.0003 | 0.18 | more potent inhibitor of all three transporters compared to vanlafaxine | stronger binding to hSERT than to hNET or hDAT | more potent inhibitor of all three transporters compared to vanlafaxine | more potent inhibitor of all three transporters compared to vanlafaxine |  | 
6 | CNCC(c1ccc2ccccc2c1)C(O)c1ccccc1 (racemic) [Compound A, racemic mixture of (2R, 3R)- and (2S, 3S)-N-methyl-3-hydroxy-2-(2′-naphthyl)-3-phenylpropylamine] | 0.00025 | 0.0063 | 0.13 |  |  |  |  | strongest binding to hNET of all the compounds tested | greater specificity for hNET than for hSERT or hDAT

Continued, in another order:

Row | Kd [1] [µM] | Kd [2] [µM] | Kd [3] [µM] | SMILES | specificity for hNET compared to venlafaxine (in words) [1] | specificity for hSERT relative to hNET and hDAT (in words) [2] | specificity for hSERT compared to venlafaxine (in words) [2] | specificity for hDAT compared to venlafaxine (in words) [3] | binding to hNET ranked among all compounds tested (in words) [1] | specificity for hNET relative to hSERT and hDAT (in words) [1]
7 | 0.06 | 0.0026 | 0.8 | CC(C)[C@@H](O)[C@H](CN(C)C)c1ccc2ccccc2c1 [Compound D2, (2S, 3R)-N,N-dimethyl-3-hydroxy-4-methyl-2-(2′-naphthyl)pentylamine] | greater specificity for all three transporters compared to venlafaxine | greater specificity for hSERT than for hNET or hDAT | greater specificity for all three transporters compared to venlafaxine | greater specificity for all three transporters compared to venlafaxine |  | 
8 | 0.15 | 0.007 | 1.28 | CC(C)C(O)C(CN)c1ccc2ccccc2c1 (single isomer, unassigned) [Compound C1] | greater specificity for all three transporters compared to venlafaxine | greater specificity for hSERT than for hNET of hDAT | greater specificity for all three transporters compared to venlafaxine | greater specificity for all three transporters compared to venlafaxine |  | 
9 | 0.0074 | 0.0042 | 0.15 | CC(C)[C@H](O)[C@@H](CN(C)C)c1ccc2ccccc2c1 [Compound D1, (2R, 3S)-N,N-dimethyl-3-hydroxy-4-methyl-2-(2′-naphthyl)pentylamine] | greater specificity for all three transporters compared to venlafaxine |  | greater specificity for all three transporters compared to venlafaxine | greater specificity for all three transporters compared to venlafaxine |  | 
10 | 0.14 | 0.0151 | 1.6 | CC(C)C(O)C(CN)c1ccc2ccccc2c1 (single isomer, unassigned) [Compound C2] |  | greater specificity for hSERT than for hNET of hDAT |  | greater specificity for all three transporters compared to venlafaxine |  | 
